The assay has as its system Hedgehog signaling pathway. The assay is described as follows: Gli-Luc luciferase reporter gene assay in C3H10T1/2/Gli-Luc cells under Shh-N stimulation. It is filed as cell-based. The note with it: luciferase RLU, read-out: biological activity: IC50 of the inhibitory activities of compounds on the hedgehog pathway. The essentials: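 C3H10T1/2 cells stably carrying a Gli-responsive luciferase reporter were stimulated with 30 nM Shh-N conditioned medium plus compound (7-point dilutions, duplicate) for 24 h at 37 °C. Luciferase luminescence read from lysates; IC50 by sigmoidal fit of RLU versus log concentration.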

Where two headings read alike, the source gives them in different places. Where only a bound is given, the exact number is not on record here.

For the molecule `COc1c(N2CCN(C(=O)CC(C)(C)O)CC2)cnc2c(-c3ccc(C#N)cc3)cccc12` [Embodiment 214], the half-inhibitory concentration (IC50) (Mus musculus, C3H 10T1/2, 24 h) was ≤ 50 nM.

Turning to `COc1c(N2CCN(C(C)=O)CC2)cnc2c(-c3ccc(C#N)cc3)cccc12` [Embodiment 215], the IC50 (Mus musculus, C3H 10T1/2, 24 h) lay in the range of 100 to 500 nM.

Take `COc1c(N2CCN(C(=O)CC3CCOCC3)CC2)cnc2c(-c3ccc(C#N)cc3)cccc12` [Embodiment 216]: the IC50 (Mus musculus, C3H 10T1/2, 24 h) fell in the range of 100 to 500 nM.

On to `COc1c(N2CCN(c3cc(C)nc(C)c3)CC2)cnc2c(-c3ccc(C#N)cc3)cccc12` [Embodiment 217, 4-(3-(4-(2,6-dimethylpyridin-4-yl)piperazin-1-yl)-4-methoxyquinolin-8-yl)benzonitrile], for which the IC50 (Mus musculus, C3H 10T1/2, 24 h) lay in the range of 100 to 500 nM.

For the molecule `CC(C)(O)c1ccc(N2CCN(c3cnc4c(-c5ccc(C#N)cc5)cccc4c3C(F)(F)F)CC2)nc1` [Embodiment 218, 4-(3-(4-(5-(2-hydroxypropan-2-yl)pyridin-2-yl)piperazin-1-yl)-4-(trifluoromethyl)quinolin-8-yl)benzonitrile], the 50% inhibitory concentration (IC50) (Mus musculus, C3H 10T1/2, 24 h) was ≤ 50 nM.

As for `CC1CN(c2cnc3c(-c4ccc(C#N)cc4)cccc3c2Br)CCN1c1ccc(C(C)(C)O)cn1` (stereo not drawn) [Embodiment 219, 4-(4-bromo-3-(4-(5-(2-hydroxypropan-2-yl)pyridin-2-yl)-3-methylpiperazin-1-yl)quinolin-8-yl)benzonitrile], the IC50 (Mus musculus, C3H 10T1/2, 24 h) is ≤ 50 nM.

Consider `COc1c(N2CCN(c3ccc(C(C)(C)O)cn3)CC2)cnc2c(-c3ccc(C#N)cc3)cccc12` [Embodiment 220, 4-(3-(4-(5-(2-hydroxypropan-2-yl)pyridin-2-yl)piperazin-1-yl)-4-methoxyquinolin-8-yl)benzonitrile], for which the IC50 (Mus musculus, C3H 10T1/2, 24 h) is ≤ 50 nM.

On to `COc1c(N2CCN(c3cnc(C(C)(C)O)cn3)CC2)cnc2c(-c3ccc(C#N)cc3)cccc12` [Embodiment 221], for which, for the setting “Mus musculus, C3H 10T1/2, 24 h”, the half-maximal inhibitory concentration (IC50) is ≤ 50 nM.

Regarding `COc1c(N2CCN(c3ccc(C(C)(C)O)c(C(F)(F)F)n3)CC2)cnc2c(-c3ccc(C#N)cc3)cccc12` [Embodiment 222], the half-inhibitory concentration (IC50) (Mus musculus, C3H 10T1/2, 24 h) was ≤ 50 nM.

`COc1c(N2CCN(c3ncc(C(C)(C)O)cc3C(F)(F)F)CC2)cnc2c(-c3ccc(C#N)cc3)cccc12` [Embodiment 223]: under “Mus musculus, C3H 10T1/2, 24 h”, the IC50 is 100 to 500 nM.

Consider `CC(C)(O)c1ccc(N2CCN(c3cnc4c(-c5ccc(C#N)cc5)cccc4c3C3CC3)CC2)nc1` [Embodiment 224], for which the IC50 (Mus musculus, C3H 10T1/2, 24 h) was ≤ 50 nM.

For `COc1c(N2CCN(c3cnc(C(C)(C)O)cn3)C(C)C2)cnc2c(-c3ccc(C#N)cc3)cccc12` (stereo not drawn) [Embodiment 225], the IC50 (Mus musculus, C3H 10T1/2, 24 h) was ≤ 50 nM.

Consider `COc1c(N2CCN(c3ccc(C(C)(C)O)cn3)C(C)C2)cnc2c(-c3ccc(C#N)cc3)cccc12` (stereo not drawn) [Embodiment 226], for which, where the note is “Mus musculus, C3H 10T1/2, 24 h”, the IC50 is ≤ 50 nM.

Take `COc1c(N2CCC(N3C[C@@H](C)O[C@@H](C)C3)CC2)cnc2c(-c3ccc(C#N)cc3)cccc12` [Embodiment 227, 4-(3-(4-(2,6-dimethylmorpholino)piperidin-1-yl)-4-methoxyquinolin-8-yl) benzonitrile]: the IC50 (Mus musculus, C3H 10T1/2, 24 h) was ≤ 50 nM.

As to `COc1c(N2CC(N3C[C@@H](C)O[C@@H](C)C3)C2)cnc2c(-c3ccc(C#N)cc3)cccc12` [Embodiment 228, 4-(3-(3-(2,6-dimethylmorpholino-4-yl)azetidin-1-yl)-4-methoxyquinolin-8-yl) benzonitrile], for the setting “Mus musculus, C3H 10T1/2, 24 h”, the IC50 was 100 to 500 nM.

With `COc1c(N2CCC(N3C[C@@H](C)O[C@@H](C)C3)C2)cnc2c(-c3ccc(C#N)cc3)cccc12` (stereo partly drawn) [Embodiment 229, 4-(3-(3-(2,6-dimethylmorpholino)pyrrolidin-1-yl)-4-methoxyquinolin-8-yl) benzonitrile], the IC50 (Mus musculus, C3H 10T1/2, 24 h) fell in the range of 100 to 500 nM.

As for `COc1c(N2C3CCC2CC(N2C[C@@H](C)O[C@@H](C)C2)C3)cnc2c(-c3ccc(C#N)cc3)cccc12` (stereo partly drawn) [Embodiment 230, 4-(3-(3-(2,6-dimethylmorpholino-4-yl)-8-azabicyclo[3.2.1]octan-8-yl)-4-methoxyquinolin-8-yl)benzonitrile], for the setting “Mus musculus, C3H 10T1/2, 24 h”, the IC50 fell in the range of 100 to 500 nM.

With `COc1c(N2CCC(O)(c3cc(C)cc(C)n3)CC2)cnc2c(-c3ccc(C#N)cc3)cccc12` [Embodiment 231, 4-(3-(4′-hydroxy-4,6-dimethyl-3′,4′,5′,6′-tetrahydro-2′H-[2,4′]bipyridyl-1′-yl)-4-methoxyquinolin-8-yl) benzonitrile], the IC50 (Mus musculus, C3H 10T1/2, 24 h) was ≤ 50 nM.

On to `COc1c(C2CCC(N3C[C@@H](C)O[C@@H](C)C3)CC2)cnc2c(-c3ccc(C#N)cc3)cccc12` (stereo partly drawn) [Embodiment 232, 4-(3-(4-(2,6-dimethylmorpholino-4-yl)cyclohexyl)-4-methoxyquinolin-8-yl) benzonitrile], for which the IC50 (Mus musculus, C3H 10T1/2, 24 h) was 100 to 500 nM.

`COc1c(N2CC[C@@H](N3C[C@@H](C)O[C@@H](C)C3)[C@@H](F)C2)cnc2c(-c3ccc(C#N)cc3)cccc12` [Embodiment 233, 4-(3-(4-(2,6-dimethylmorpholino-4-yl)-3-fluoropiperidin-1-yl)-4-methoxyquinolin-8-yl)benzonitrile]: under “Mus musculus, C3H 10T1/2, 24 h”, the IC50 is ≤ 50 nM.

For `COc1c(N2CCC(N3CC(C)OC(C)C3=O)CC2)cnc2c(-c3ccc(C#N)cc3)cccc12` (stereo not drawn) [Embodiment 235, 4-(3-(4-(2,6-dimethyl-3-oxo-morpholino-4-yl)piperidin-1-yl)-4-methoxyquinolin-8-yl) benzonitrile], the IC50 (Mus musculus, C3H 10T1/2, 24 h) is ≤ 50 nM.

Turning to `CC(C)(O)c1ccc(N2CCN(c3cnc4c(-c5ccc(C#N)cc5)cccc4c3C3CC3)CC2=O)nc1` [Embodiment 236, 4-(4-cyclopropyl-3-(4-(5-(1-hydroxy-1-methyl-ethyl)pyridin-2-yl)-3-oxo-piperazin-1-yl)quinolin-8-yl)benzonitrile], the IC50 (Mus musculus, C3H 10T1/2, 24 h) is ≤ 50 nM.

Regarding `CC(C)(O)c1ccc(N2CCN(c3cnc4c(-c5ccc(C#N)cc5)cccc4c3C3CC3)CC2(C)O)nc1` (stereo not drawn) [Embodiment 237, 4-(4-cyclopropyl-3-(3-hydroxy-4-(5-(1-hydroxy-1-methyl-ethyl)pyridin-2-yl)-3-methylpiperazin-1-yl)quinolin-8-yl)benzonitrile], under “Mus musculus, C3H 10T1/2, 24 h”, the IC50 is 100 to 500 nM.

As for `COc1c(N2CCC(O)(c3ccc(C(C)(C)O)cn3)CC2)cnc2c(-c3ccc(C#N)cc3)cccc12` [Embodiment 238, 4-(3-(4-hydroxy-4-(5-(2-hydroxypropan-2-yl)pyridin-2-yl)piperidin-1-yl)-4-methoxyquinolin-8-yl)benzonitrile], the IC50 (Mus musculus, C3H 10T1/2, 24 h) is ≤ 50 nM.

With `C[C@@H]1CN(c2ccc(-c3cnc4c(-c5ccc(C#N)cc5)cccc4c3C3CC3)c(C(=O)O)n2)C[C@H](C)O1` [Embodiment 239, 3-(8-(4-cyanophenyl)-4-cyclopropylquinolin-3-yl)-6-(2,6-dimethylmorpholino-4-yl)pyridin-2-carboxylic acid], for the setting “Mus musculus, C3H 10T1/2, 24 h”, the IC50 is 100 to 500 nM.

Consider `COc1c(C2(O)CCN(c3ccc(C(C)(C)O)cn3)CC2)cnc2c(-c3ccc(C#N)cc3)cccc12` [Embodiment 240, 4-(3-(4-hydroxy-5′-(1-hydroxy-1-methyl-ethyl)-3,4,5,6-tetrahydro-2H-[1,2′]bipyridyl-4-yl)4-methoxyquinolin-8-yl)benzonitrile], for which the IC50 (Mus musculus, C3H 10T1/2, 24 h) is 100 to 500 nM.

As for `COc1c(NC(=O)c2ccc(N3C[C@@H](C)O[C@@H](C)C3)nc2)cnc2c(-c3ccc(C#N)cc3)cccc12` [Embodiment 241, N-(8-(4-cyanophenyl)-4-methoxyquinolin-3-yl)-6-(2,6-dimethylmorpholino-4-yl) nicotinamide], for the setting “Mus musculus, C3H 10T1/2, 24 h”, the IC50 lay in the range of 100 to 500 nM.

As to `COc1c(C(=O)Nc2ccc(N3C[C@@H](C)O[C@@H](C)C3)cc2)cnc2c(-c3ccc(C#N)cc3)cccc12` [Embodiment 242, 8-(4-cyanophenyl)-N-(4-((2S,6R)-2,6-dimethylmorpholino)phenyl)-4-methoxyquinoline-3-carboxamide], the IC50 (Mus musculus, C3H 10T1/2, 24 h) was ≤ 50 nM.

Regarding `COc1c(C(=O)Nc2ccc(N3C[C@@H](C)O[C@@H](C)C3)nc2)cnc2c(-c3ccc(C#N)cc3)cccc12` [Embodiment 243, 8-(4-cyanophenyl)-N-(6-((2S,6R)-2,6-dimethylmorpholino)pyridin-3-yl)-4-methoxyquinoline-3-carboxamide], the IC50 (Mus musculus, C3H 10T1/2, 24 h) was ≤ 50 nM.

In the case of `C[C@@H]1CN(c2ccc(NC(=O)c3cnc4c(-c5ccc(C#N)cc5)cccc4c3C3CC3)cn2)C[C@H](C)O1` [Embodiment 244, 8-(4-cyanophenyl)-4-cyclopropyl-N-(6-((2S,6R)-2,6-dimethylmorpholino)pyridin-3-yl) quinoline-3-carboxamide], where the note is “Mus musculus, C3H 10T1/2, 24 h”, the IC50 was ≤ 50 nM.

Take `CCC(=O)N1[C@H](C)CN(c2ccc(NC(=O)c3cnc4c(-c5ccc(C#N)cc5)cccc4c3OC)cn2)C[C@@H]1C` [Embodiment 245, 8-(4-cyanophenyl)-N-(6-((3S,5R)-3,5-dimethyl-4-propionylpiperazin-1-yl)pyridin-3-yl)-4-methoxyquinoline-3-carboxamide]: the IC50 (Mus musculus, C3H 10T1/2, 24 h) fell in the range of 100 to 500 nM.

As to `CCC(=O)N1[C@H](C)CN(c2ccc(NC(=O)c3cnc4c(-c5ccc(C#N)cc5)cccc4c3C3CC3)cn2)C[C@@H]1C` [Embodiment 246], under “24 h”, the IC50 is ≤ 50 nM.

On to `COc1c(N2CCn3c(nnc3C(F)(F)F)C2)cnc2c(-c3ccc(C#N)cc3)cccc12` [Embodiment 247, 4-(4-methoxy-3-(3-trifluoromethyl-5,6-dihydro-8H-[1,2,4]triazolo[4,3-a]pyrazin-7-yl)quinolin-8-yl)benzonitrile], for which the IC50 (Mus musculus, C3H 10T1/2, 24 h) is 100 to 500 nM.

For the molecule `COc1c(N2CCN(C(=O)C3CC3)CC2)cnc2c(-c3ccc(C#N)cc3)cccc12` [Embodiment 248, 4-(3-(4-cyclopropanecarbonylpiperazin-1-yl)-4-methoxyquinolin-8-yl)benzonitrile], the IC50 (Mus musculus, C3H 10T1/2, 24 h) was ≤ 50 nM.

As for `COc1c(N2CCN(S(=O)(=O)C(C)C)CC2)cnc2c(-c3ccc(C#N)cc3)cccc12` [Embodiment 249, 4-(4-methoxy-3-(4-(propane-2-sulfonyl)piperazin-1-yl)-quinolin-8-yl)benzonitrile], the half-maximal inhibitory concentration (IC50) (Mus musculus, C3H 10T1/2, 24 h) is ≤ 50 nM.

As for `CCC(=O)N1[C@H](C)CN(c2ccc(-c3nc4c(-c5ccc(C#N)cc5)cccc4[nH]3)cn2)C[C@@H]1C` [Embodiment 250, 4-(2-(6-(3,5-dimethyl-4-propionylpiperazin-1-yl)pyridin-3-yl)-1H-benzo[d]imidazol-4-yl)benzonitrile], the half-inhibitory concentration (IC50) (Mus musculus, C3H 10T1/2, 24 h) lay within 100 to 500 nM.

As a reminder, the IC50 is the point on the concentration scale where inhibition reaches its midpoint.

Values taken from patent US9938292B2 (GUANGDONG ZHONGSHENG PHARMACEUTICAL CO., LTD, priority 2014, dated 2018).
